{
  "source": "ChEMBL document CHEMBL5465560",
  "about": "“Selectivity Literature for EUbOPEN Chemogenomic Library” (2024)",
  "key": {"[1]": {"biological_target": "Cyclin-dependent kinase 17 (Homo sapiens) (UniProt Q00537)", "sequence (Q00537 whole entry, looked up)": "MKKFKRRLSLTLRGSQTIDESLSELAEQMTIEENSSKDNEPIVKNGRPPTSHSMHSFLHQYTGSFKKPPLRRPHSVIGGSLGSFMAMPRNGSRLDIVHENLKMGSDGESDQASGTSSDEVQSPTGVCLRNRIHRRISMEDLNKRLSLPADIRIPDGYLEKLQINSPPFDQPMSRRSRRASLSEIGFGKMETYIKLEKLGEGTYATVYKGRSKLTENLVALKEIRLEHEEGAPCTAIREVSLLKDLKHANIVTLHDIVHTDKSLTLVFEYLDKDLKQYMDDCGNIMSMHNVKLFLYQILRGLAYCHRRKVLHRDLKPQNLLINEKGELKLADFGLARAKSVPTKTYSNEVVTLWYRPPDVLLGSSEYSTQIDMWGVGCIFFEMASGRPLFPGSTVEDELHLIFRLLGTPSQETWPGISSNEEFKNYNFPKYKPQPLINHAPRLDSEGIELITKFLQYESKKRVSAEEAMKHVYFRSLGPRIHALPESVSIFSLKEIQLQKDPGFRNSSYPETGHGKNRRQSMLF", "assay": "Selectivity interaction (Kinase panel (KiNativ target engagement assay in Jurkat cells)) EUB0001635a CDK17", "type": "cell-based", "conditions": "Selectivity number of off-targets 0.0, Selectivity number of targets 233.0, Source Knowledge https://www.sciencedirect.com/science/article/pii/S2451945619300674?via%3Dihub, at 1 µM"}, "[2]": {"biological_target": "Serine/threonine-protein kinase 16 (Homo sapiens, UniProt O75716)", "sequence (O75716 whole entry)": "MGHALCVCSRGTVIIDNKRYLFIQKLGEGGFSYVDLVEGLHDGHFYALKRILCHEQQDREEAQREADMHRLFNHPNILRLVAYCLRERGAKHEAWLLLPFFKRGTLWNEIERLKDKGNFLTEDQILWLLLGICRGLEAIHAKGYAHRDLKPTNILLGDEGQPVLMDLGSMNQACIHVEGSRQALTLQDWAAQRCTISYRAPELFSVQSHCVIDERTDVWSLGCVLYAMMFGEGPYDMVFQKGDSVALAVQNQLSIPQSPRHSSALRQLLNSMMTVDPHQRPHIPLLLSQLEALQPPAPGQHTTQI", "assay": "Selectivity interaction (KinomeScan (DiscoverX)) EUB0000229b STK16", "conditions": "at 10 µM"}, "[3]": {"biological_target": "G protein-coupled receptor kinase 5 (Homo sapiens, UniProt P34947)", "sequence (P34947 whole entry, looked up)": "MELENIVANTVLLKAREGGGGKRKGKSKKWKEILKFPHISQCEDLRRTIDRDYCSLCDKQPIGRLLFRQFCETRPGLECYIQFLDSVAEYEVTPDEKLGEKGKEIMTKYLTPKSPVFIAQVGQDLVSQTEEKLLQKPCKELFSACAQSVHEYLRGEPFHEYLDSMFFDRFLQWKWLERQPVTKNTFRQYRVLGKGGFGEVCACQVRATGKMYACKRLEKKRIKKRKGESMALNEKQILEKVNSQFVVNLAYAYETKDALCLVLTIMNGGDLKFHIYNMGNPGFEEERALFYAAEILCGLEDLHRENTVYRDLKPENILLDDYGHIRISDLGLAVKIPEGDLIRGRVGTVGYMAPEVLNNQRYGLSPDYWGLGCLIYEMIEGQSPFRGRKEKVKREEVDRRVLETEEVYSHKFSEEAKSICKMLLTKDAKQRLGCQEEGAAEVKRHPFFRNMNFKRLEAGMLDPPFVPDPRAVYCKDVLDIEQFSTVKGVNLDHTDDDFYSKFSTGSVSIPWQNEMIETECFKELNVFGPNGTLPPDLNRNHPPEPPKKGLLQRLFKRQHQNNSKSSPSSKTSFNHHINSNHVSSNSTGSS", "assay": "Selectivity interaction (Kinase panel (DSF assay)) EUB0001559a GRK5"}, "[4]": {"biological_target": "Cyclin-dependent kinase 14 (Homo sapiens) (UniProt O94921)", "sequence (O94921 whole entry)": "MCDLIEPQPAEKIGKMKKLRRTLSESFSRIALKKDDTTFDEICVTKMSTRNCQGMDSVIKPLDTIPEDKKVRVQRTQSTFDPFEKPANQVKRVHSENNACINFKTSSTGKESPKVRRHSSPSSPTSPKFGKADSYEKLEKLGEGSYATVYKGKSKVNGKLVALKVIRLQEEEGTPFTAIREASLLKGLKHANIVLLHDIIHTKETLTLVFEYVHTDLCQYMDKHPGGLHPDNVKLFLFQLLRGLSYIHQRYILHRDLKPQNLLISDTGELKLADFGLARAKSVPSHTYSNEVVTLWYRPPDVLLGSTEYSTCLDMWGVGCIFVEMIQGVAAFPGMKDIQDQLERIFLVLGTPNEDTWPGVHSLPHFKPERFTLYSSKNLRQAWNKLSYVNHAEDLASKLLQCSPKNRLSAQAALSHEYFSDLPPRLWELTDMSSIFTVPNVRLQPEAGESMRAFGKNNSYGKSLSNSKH", "assay": "Selectivity interaction (KinomeScan (DiscoverX)) EUB0000695a CDK14", "conditions": "at 100 nM"}, "[5]": {"biological_target": "T1, cGMP-dependent protein kinase 1 (Homo sapiens) (UniProt Q13976)", "T1 sequence (whole entry)": "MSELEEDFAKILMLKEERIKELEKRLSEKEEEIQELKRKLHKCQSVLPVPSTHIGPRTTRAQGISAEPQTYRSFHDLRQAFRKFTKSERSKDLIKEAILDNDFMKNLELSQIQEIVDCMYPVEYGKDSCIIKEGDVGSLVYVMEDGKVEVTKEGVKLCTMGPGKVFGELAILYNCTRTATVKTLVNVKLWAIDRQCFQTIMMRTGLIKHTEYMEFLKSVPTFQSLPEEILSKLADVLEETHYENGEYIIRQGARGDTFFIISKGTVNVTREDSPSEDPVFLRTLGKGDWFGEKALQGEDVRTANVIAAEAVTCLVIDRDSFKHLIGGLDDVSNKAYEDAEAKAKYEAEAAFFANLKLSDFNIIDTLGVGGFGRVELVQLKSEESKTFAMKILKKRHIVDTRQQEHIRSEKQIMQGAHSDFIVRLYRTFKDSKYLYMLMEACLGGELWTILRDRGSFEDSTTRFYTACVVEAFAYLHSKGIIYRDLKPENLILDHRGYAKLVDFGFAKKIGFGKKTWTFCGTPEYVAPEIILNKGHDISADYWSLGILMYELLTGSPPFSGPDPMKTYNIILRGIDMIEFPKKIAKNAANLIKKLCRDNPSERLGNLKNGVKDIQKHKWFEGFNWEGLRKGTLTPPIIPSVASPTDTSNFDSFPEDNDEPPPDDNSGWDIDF", "assay": "Selectivity interaction (Kinase panel (Z-LYTE Assay)) EUB0001632a PRKG1", "conditions": "at 10 µM"}, "[6]": {"biological_target": "Activin receptor type-2B (Homo sapiens) (UniProt Q13705)", "sequence (Q13705 whole entry)": "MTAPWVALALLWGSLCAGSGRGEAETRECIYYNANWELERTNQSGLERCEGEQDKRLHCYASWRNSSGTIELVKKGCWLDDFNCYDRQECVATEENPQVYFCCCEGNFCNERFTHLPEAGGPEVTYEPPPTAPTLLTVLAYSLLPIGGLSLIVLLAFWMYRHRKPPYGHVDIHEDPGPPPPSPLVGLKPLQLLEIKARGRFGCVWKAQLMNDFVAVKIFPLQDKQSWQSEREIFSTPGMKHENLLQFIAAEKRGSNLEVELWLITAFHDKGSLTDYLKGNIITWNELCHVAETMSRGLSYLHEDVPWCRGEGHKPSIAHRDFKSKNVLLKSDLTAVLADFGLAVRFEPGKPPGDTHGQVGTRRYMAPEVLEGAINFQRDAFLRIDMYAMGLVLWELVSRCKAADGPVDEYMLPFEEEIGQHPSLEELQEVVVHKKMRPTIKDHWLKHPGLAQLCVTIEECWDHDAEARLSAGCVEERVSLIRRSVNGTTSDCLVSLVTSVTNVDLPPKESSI", "conditions": "at 10 µM"}, "[7]": {"biological_target": "Serine/threonine-protein kinase PLK2 (Homo sapiens, UniProt Q9NYY3)", "sequence (Q9NYY3 whole entry, looked up)": "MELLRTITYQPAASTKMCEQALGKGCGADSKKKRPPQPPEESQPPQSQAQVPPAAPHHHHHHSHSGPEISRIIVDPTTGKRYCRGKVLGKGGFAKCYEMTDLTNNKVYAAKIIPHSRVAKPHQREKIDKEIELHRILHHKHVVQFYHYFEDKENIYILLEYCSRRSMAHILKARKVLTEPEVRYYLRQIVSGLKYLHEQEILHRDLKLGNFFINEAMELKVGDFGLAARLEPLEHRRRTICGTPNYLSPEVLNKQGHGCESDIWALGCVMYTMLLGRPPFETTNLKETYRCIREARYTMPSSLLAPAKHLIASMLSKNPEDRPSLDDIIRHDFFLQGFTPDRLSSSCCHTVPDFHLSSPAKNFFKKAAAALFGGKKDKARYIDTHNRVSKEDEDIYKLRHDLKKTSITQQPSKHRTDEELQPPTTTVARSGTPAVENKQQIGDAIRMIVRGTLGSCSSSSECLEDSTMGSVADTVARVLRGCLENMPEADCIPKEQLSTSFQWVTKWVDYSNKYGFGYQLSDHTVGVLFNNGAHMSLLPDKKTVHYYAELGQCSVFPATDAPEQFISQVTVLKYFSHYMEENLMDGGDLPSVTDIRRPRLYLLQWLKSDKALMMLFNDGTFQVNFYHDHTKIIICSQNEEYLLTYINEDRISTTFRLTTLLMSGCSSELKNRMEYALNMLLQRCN", "assay": "Selectivity interaction (Upstate Kinase Profiler service (Millipore)) EUB0000056c PLK2", "conditions": "at 1 µM"}, "[8]": {"biological_target": "Receptor tyrosine-protein kinase erbB-3 (Homo sapiens) (UniProt P21860)", "sequence (P21860 whole entry)": "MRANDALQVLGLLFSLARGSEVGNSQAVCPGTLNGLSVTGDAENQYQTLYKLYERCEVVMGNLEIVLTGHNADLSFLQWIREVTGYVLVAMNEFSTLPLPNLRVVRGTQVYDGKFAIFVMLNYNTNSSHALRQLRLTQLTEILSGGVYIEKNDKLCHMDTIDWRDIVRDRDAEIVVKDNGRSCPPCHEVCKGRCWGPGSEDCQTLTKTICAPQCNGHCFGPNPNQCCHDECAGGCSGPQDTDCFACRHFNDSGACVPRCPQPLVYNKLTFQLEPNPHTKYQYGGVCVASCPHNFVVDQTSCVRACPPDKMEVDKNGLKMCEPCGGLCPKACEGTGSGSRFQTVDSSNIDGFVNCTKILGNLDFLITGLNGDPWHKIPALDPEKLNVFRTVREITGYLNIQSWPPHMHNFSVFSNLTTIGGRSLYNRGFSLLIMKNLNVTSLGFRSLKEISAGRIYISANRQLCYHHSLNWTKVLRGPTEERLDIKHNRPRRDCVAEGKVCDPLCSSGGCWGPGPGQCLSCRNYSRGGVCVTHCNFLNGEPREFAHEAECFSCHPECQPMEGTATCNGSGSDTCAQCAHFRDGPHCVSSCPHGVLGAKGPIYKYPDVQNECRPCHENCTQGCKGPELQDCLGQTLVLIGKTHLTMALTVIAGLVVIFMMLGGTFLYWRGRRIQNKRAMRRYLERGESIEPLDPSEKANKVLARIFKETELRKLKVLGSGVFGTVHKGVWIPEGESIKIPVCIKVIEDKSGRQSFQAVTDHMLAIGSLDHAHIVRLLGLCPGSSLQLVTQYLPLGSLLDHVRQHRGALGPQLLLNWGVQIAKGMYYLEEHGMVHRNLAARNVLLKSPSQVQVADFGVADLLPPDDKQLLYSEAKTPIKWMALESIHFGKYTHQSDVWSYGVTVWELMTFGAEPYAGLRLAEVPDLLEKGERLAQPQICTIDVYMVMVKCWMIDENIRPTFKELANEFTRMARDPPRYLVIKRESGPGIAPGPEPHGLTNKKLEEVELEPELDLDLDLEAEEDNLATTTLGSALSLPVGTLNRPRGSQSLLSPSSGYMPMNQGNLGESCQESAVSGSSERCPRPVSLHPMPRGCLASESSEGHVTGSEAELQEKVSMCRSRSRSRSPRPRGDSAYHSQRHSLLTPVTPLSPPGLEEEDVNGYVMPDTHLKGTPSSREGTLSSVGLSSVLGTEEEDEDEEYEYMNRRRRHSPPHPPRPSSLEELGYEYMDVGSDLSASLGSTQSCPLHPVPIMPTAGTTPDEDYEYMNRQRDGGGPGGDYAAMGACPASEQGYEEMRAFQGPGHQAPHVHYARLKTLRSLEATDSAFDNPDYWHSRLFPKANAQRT", "assay": "Selectivity interaction (KinomeScan (DiscoverX)) EUB0000607a ERBB3", "conditions": "at 10 µM"}, "[9]": {"biological_target": "T2, Tyrosine-protein kinase JAK3 (Homo sapiens) (UniProt P52333)", "T2 sequence (whole entry)": "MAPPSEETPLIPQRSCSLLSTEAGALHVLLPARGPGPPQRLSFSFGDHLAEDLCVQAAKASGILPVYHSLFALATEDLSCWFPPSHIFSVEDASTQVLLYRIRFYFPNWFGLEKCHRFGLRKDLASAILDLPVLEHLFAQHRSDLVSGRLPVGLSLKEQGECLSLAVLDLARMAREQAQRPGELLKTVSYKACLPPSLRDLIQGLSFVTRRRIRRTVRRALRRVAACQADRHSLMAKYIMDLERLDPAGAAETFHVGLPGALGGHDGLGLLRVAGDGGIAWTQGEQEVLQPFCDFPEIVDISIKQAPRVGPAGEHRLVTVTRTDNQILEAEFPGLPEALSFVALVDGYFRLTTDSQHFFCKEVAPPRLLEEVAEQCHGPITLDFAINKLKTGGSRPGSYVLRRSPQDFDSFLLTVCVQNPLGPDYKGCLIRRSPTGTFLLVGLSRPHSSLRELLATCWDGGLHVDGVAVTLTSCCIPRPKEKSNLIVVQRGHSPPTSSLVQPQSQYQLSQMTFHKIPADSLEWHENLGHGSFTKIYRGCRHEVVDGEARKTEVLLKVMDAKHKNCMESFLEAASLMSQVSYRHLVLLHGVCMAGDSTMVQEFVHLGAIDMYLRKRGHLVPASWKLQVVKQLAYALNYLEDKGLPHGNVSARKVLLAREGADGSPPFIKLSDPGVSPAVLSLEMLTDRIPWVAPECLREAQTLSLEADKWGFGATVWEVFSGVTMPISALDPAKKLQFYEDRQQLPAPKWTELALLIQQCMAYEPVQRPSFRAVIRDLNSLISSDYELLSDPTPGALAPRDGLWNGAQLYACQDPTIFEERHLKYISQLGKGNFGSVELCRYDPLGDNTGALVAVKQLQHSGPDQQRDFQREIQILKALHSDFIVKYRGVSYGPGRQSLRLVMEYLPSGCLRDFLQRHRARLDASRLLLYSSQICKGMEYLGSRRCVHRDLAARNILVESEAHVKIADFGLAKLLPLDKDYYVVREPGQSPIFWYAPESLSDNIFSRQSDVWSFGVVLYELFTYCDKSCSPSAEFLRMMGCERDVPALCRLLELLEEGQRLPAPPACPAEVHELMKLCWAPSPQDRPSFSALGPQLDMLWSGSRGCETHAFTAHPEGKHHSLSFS", "assay": "Selectivity interaction (SelectScreen profiling (Invitrogen)) EUB0000607a JAK3", "conditions": "at 2 µM"}, "[10]": {"biological_target": "T3, Calcium/calmodulin-dependent protein kinase type IV (Homo sapiens) (UniProt Q16566)", "T3 sequence (whole entry)": "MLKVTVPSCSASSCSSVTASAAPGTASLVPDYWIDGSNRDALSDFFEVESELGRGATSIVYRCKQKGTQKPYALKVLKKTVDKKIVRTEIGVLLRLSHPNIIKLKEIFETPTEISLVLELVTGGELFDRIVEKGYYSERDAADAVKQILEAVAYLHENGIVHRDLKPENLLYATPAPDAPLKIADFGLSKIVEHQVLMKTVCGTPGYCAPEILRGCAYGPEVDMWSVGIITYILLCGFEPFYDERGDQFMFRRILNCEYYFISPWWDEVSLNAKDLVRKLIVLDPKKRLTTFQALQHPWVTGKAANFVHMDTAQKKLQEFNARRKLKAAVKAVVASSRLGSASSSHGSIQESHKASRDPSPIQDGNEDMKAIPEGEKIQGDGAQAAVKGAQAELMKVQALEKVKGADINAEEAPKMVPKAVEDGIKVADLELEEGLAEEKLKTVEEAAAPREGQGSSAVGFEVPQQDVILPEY", "assay": "Selectivity interaction (KinomeScan (DiscoverX)) EUB0000618a CAMK4", "conditions": "at 10 µM"}, "[11]": {"biological_target": "Death-associated protein kinase 2 (Homo sapiens) (UniProt Q9UIK4)", "sequence (Q9UIK4 whole entry, looked up)": "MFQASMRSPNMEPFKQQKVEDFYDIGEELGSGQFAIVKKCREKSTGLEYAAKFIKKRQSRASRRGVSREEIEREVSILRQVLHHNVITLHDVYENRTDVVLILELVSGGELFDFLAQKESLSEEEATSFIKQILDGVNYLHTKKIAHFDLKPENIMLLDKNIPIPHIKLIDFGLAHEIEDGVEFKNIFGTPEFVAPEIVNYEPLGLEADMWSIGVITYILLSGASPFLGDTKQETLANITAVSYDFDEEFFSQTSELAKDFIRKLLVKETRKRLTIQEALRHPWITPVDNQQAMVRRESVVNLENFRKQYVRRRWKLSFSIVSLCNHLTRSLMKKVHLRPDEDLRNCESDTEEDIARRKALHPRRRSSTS", "conditions": "at 10 µM"}},
  "data": [
    {"smiles": "C=CC(=O)Nc1ccc(C(=O)Nc2[nH]nc3c2CN(C(=O)N[C@H](CN(C)C)c2ccccc2)C3(C)C)cc1", "values": [
      {"measurement": "% of engagement", "setting": "[1]", "result": 9.3, "unit": "%"}
    ]},
    {"smiles": "COc1cc(N(C)c2ccnc3ccc(C(F)(F)F)cc23)cc(OC)c1OC", "values": [
      {"measurement": "% binding", "setting": "[2]", "result": 90, "unit": "%"}
    ]},
    {"smiles": "CN(C(=O)c1cnn2cccnc12)c1cc2c(cc1N1CCOCC1)C(=O)N(C[C@@H](F)C(C)(C)O)C2", "values": [
      {"measurement": "dTM", "setting": "[3]", "result": 0, "unit": "K"}
    ]},
    {"smiles": "Cc1cc(F)c(C(=O)Nc2cccc(-c3nncn3C(C)C)n2)cc1-n1cnc(C2CC2)c1", "values": [
      {"measurement": "% of control", "setting": "[4]", "result": 49, "unit": "%"}
    ]},
    {"smiles": "Cn1cc(-n2cnc3c(NCc4nc5cc(Cl)c(Cl)cc5[nH]4)nc(N4CCOCC4)nc32)cn1", "values": [
      {"measurement": "% of control", "setting": "[5]", "result": -8.04, "unit": "%"}
    ]},
    {"smiles": "Cc1cc([C@@H](C)Nc2ccccc2C(=O)O)c2nc(N3CCOCC3)cc(=O)n2c1", "note": "[AZD-6482]", "values": [
      {"measurement": "% of control", "setting": "[6]", "result": 100, "unit": "%"}
    ]},
    {"smiles": "Cc1ccc(-c2ccc3c(ccc4sc5c(c43)NC[C@@H](C)NC5=O)n2)cn1", "values": [
      {"measurement": "% of inhibition", "setting": "[7]", "result": -19, "unit": "%"}
    ]},
    {"smiles": "CNC(=O)Nc1ccc(-c2nc(N3CC4CCC(C3)O4)c3cnn(C4CCC5(CC4)OCCO5)c3n2)cc1", "values": [
      {"measurement": "% of control", "setting": "[8]", "result": 100, "unit": "%"},
      {"measurement": "% of inhibition", "setting": "[9]", "result": 0, "unit": "%"}
    ]},
    {"smiles": "O[C@H]1CC[C@H](Nc2ncc3nc(Nc4c(F)cc(F)cc4F)n([C@H]4CCOC4)c3n2)CC1", "values": [
      {"measurement": "% of control", "setting": "[10]", "result": 87, "unit": "%"}
    ]},
    {"smiles": "CCN(CC)CCCCNc1ncc2cc(-c3cc(OC)cc(OC)c3)c(NC(=O)NC(C)(C)C)nc2n1", "values": [
      {"measurement": "% of control", "setting": "[11]", "result": 100, "unit": "%"}
    ]}
  ]
}
